Results reported in ChEMBL document CHEMBL3867481, “GPR40 agonists for the treatment of type 2 diabetes mellitus: The biological characteristics and the chemical space” (Bioorg Med Chem Lett, 2016).
Values belong to the compound of their own block, whether it stands above or below them.

Experiments:
[1] = target: T1, Free fatty acid receptor 1 (Homo sapiens, UniProt O14842); test: Agonist activity at human GPR40 expressed in CHOK cells assessed as increase in intracellular Ca2+ flux by Fluo-4 based assay; format: functional, cell-based
Mus musculus = test: Antidiabetic activity in po dosed albino Balb/c mouse assessed as reduction in plasma glucose AUC administered qd for 3 days measured on day 4 administered 60 mins prior to glucose challenge measured up to 60 mins post glucose challenge by intraperitoneal glucose tolerance test; format: functional
[2] = Antidiabetic activity in ZDF rat assessed as induction of glucose-stimulated insulin secretion; format: functional
[3] = target: Free fatty acid receptor 1 (Rattus norvegicus, UniProt Q8K3T4); test: Agonist activity at rat GPR40 expressed in HEK293 cells assessed as increase in intracellular Ca2+ flux by Fluo-4-AM dye based FLIPR assay; format: functional, cell-based
[4] = Oral bioavailability in mouse; format: ADME, organism-based; conditions: in vivo
[5] = Half life in iv or po dosed monkey; format: ADME, organism-based, Macaca mulatta; conditions: rhesus monkey, in vivo
[6] = Oral bioavailability in dog; format: ADME, organism-based, Canis lupus familiaris; conditions: in vivo
[7] = Oral bioavailability in monkey; format: ADME, organism-based, Macaca mulatta; conditions: rhesus monkey, in vivo
[8] = Half life in iv or po dosed mouse; format: ADME, organism-based; conditions: in vivo
[9] = Half life in iv or po dosed dog; format: ADME, organism-based, Canis lupus familiaris; conditions: in vivo
[10] = Half life in iv or po dosed rat; format: ADME, organism-based; conditions: in vivo
[11] = Oral bioavailability in rat; format: ADME, organism-based; conditions: in vivo
[12] = target: T1, Free fatty acid receptor 1; test: Agonist activity at full length recombinant human GPR40 expressed in CHOK1 cells assessed as intracellular IP3 accumulation by fluorescence assay; format: functional, cell-based, CHO-K1
[13] = Half life in human; format: ADME
[14] = target: T1, Free fatty acid receptor 1; test: Agonist activity at flag-tagged human GPR40 expressed in HEK293 cells assessed as increase in intracellular Ca2+ flux by FLIPR assay; format: functional, cell-based
[15] = target: T1, Free fatty acid receptor 1; test: Agonist activity at human GPR40 expressed in CHO cells coexpressing NFAT BLA assessed as increase in intracellular Ca2+ flux by fluo-4-AM dye based FLIPR assay; format: functional, cell-based
Rattus norvegicus [16] = test: Antidiabetic activity in po dosed Zucker fa/fa rat assessed as reduction in plasma glucose AUC administered for 21 days measuredon day 21 administered 1 hr prior to glucose challenge measured up to 120 mins post glucose challenge by oral glucose tolerance test; format: functional
Rattus norvegicus [17] = test: Antidiabetic activity in po dosed Zucker fa/fa rat assessed as reduction in plasma glucose AUC administered 1 hr prior to glucose challenge measured up to 120 mins post glucose challenge by oral glucose tolerance test; format: functional
[18] = target: T1, Free fatty acid receptor 1; test: Agonist activity at human GPR40 expressed in HEK293 cells assessed as increase in intracellular Ca2+ flux by FLIPR assay relative to linoleic acid; format: functional, cell-based

Sequence of Free fatty acid receptor 1 (Rattus norvegicus, UniProt Q8K3T4) (Q8K3T4 whole entry): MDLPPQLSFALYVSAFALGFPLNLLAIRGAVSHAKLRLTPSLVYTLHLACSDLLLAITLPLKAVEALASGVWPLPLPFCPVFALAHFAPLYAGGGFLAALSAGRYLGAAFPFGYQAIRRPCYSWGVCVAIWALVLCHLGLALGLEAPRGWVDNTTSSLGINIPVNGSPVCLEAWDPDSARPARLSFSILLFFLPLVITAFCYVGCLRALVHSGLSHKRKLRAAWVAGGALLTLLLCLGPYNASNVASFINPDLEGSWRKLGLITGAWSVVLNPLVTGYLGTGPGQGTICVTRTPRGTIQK
T1 sequence (O14842 whole entry): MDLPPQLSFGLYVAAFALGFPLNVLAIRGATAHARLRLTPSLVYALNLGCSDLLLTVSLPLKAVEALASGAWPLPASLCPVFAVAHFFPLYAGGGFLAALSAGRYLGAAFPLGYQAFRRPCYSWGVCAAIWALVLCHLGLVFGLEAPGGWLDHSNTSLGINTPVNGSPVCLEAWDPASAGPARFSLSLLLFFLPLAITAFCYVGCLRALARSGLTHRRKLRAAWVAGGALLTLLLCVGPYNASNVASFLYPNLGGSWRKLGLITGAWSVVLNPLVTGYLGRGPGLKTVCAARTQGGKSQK

SMILES: CC#C[C@@H](CC(=O)O)c1ccc(OCc2ccc(CN3CCCc4cccc(OC)c43)s2)cc1
- ED50 (Mus musculus): 1 mg/kg

SMILES: Cc1cc(OCC2CCOC2)cc(C)c1-c1cccc(COc2ccc(C3(CC(=O)O)COC3)cc2)c1 (stereo not given)
- EC50 [12]: < 100 nM

SMILES: Cc1cc(OCCCS(C)(=O)=O)cc(C)c1-c1cccc(COc2ccc3c(c2)OC[C@H]3CC(=O)O)c1
- half-life [13]: 28 to 30 h

SMILES: CCOc1ccc(F)c(N2CC[C@@H](Oc3cnc(N4CC(OC)[C@@H](C)[C@@H]4CC(=O)O)cn3)[C@H](C)C2)c1 (stereo not given in full)
- EC50 [14]: 42 nM

SMILES: Cc1cc(OCCC(C)O)cc(C)c1-c1ccc(F)c(COc2cc3c(cn2)[C@@H]2C(C(=O)O)[C@@H]2C3)c1 (stereo not given in full)
- EC50 [15]: 13 nM

SMILES: COc1ccc(F)c(-c2ccc(Cc3cccc(N4C[C@H](c5cccc(Cl)c5)C[C@@H]4CC(=O)O)c3)c(C)c2)c1
- EC50 [14]: 10 nM

SMILES: O=C(O)CCc1ccc2oc(Nc3c(Cl)c(Cl)cc(Cl)c3Cl)nc2c1
- EC50 [3]: 630 nM

SMILES: Cc1cc(OCCO)ccc1-c1cccc(COc2ccc(Cn3oc(=O)[nH]c3=O)cc2)c1
- EC50 [15]: 380 nM

SMILES: Cc1cc(OC[C@H]2COC(C)(C)O2)cc(C)c1-c1cccc(COc2ccc(-c3cc(O)no3)cc2)c1C
- EC50 [15]: < 300 nM

SMILES: COc1ccc(C)c(N2CC[C@@H](Oc3ccc(N4N=C(C(F)(F)F)[C@@H](C)[C@@H]4CC(=O)O)cc3)[C@H](C)C2)c1
- EC50 [14]: 71 nM

Second part, led by results:

- EC50 [1]: < 10 nM
SMILES: CO/N=C(\COc1ccc(COc2ccc(C(C#N)CC(=O)O)cc2)cc1)c1ccc(F)cc1 (stereo not given)

- EC50 [3]: 0.4 nM
SMILES: CC#C[C@@H](CC(=O)O)c1ccc(NC(=O)C(=O)Nc2cccc(C(C)(C)C)c2)cc1
- MED [2]: 1 mg/kg

- bioavailability [4]: 67 to 100%
- half-life [5]: 7.2 to 28 h
- bioavailability [6]: 67 to 100%
- bioavailability [7]: 67 to 100%
- half-life [8]: 7.2 to 28 h
- half-life [9]: 7.2 to 28 h
- half-life [10]: 7.2 to 28 h
- bioavailability [11]: 67 to 100%
SMILES: CC#C[C@@H](CC(=O)O)c1ccc(OCc2cccc(-c3ccc(C(F)(F)F)cc3)c2)cc1

- EC50 [3]: 10 nM
SMILES: CC#C[C@@H](CC(=O)O)c1ccc(OCCOc2cccc(Cl)c2)cc1

- Emax [18]: 76%
SMILES: CC#C[C@@H](CC(=O)O)c1ccc(OCc2ccc3nc(-c4c(C)cccc4C)nn3c2)cc1
- ED90 (Rattus norvegicus [16]): 5 mg/kg
- ED90 (Rattus norvegicus [17]): 4.1 mg/kg
